Several values for one entry are separate records, joined by “and”; a condition that tells them apart may be missing. Equal entries are not always repeated. Toxic doses and inconclusive results are not listed. How the source made its calls: active means survival T/C of 150% or more; inactive means T/C below 125% in these data.
System: CD2F1 mice, L1210 leukemia ip, survival T/C
Test: NCI In Vivo Anticancer Drug Screen. Data for tumor model L1210 Leukemia (intraperitoneal) in CD2F1 (CDF1) mice
Details: endpoint: mean survival time, higher = longer survival
Method in brief: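 In this screen, transplantable tumors were grown in mice given either the compound or its vehicle. Results were expressed as the treated measurement relative to the control measurement.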

[1] = dose: 50.0 mg/kg/injection, schedule: Q04DX003 (ip), vehicle: saline with Tween-80
[2] = dose: 100.0 mg/kg/injection, schedule: Q04DX003 (ip), vehicle: saline with Tween-80
[3] = dose: 200.0 mg/kg/injection, schedule: Q04DX003 (ip), vehicle: saline with Tween-80
[4] = dose: 400.0 mg/kg/injection, schedule: Q04DX003 (ip), vehicle: saline with Tween-80
[5] = dose: 50.0 mg/kg/injection, schedule: Q01DX009 (ip), vehicle: saline with Tween-80
[6] = dose: 100.0 mg/kg/injection, schedule: Q01DX009 (ip), vehicle: saline with Tween-80

Measured: T/C

COc1cccc(C(O)c2ccncc2)c1OC (stereo not drawn)
inactive: dose: 25.0 mg/kg/injection, schedule: Q01DX009 (ip), vehicle: water 96 % of control | dose: 50.0 mg/kg/injection, schedule: Q01DX009 (ip), vehicle: water 105 % of control | dose: 100.0 mg/kg/injection, schedule: Q01DX009 (ip), vehicle: water 98 % of control | dose: 200.0 mg/kg/injection, schedule: Q01DX009 (ip), vehicle: water 93 % of control | dose: 400.0 mg/kg/injection, schedule: Q01DX009 (ip), vehicle: water 91 % of control

Cc1ccc(S(=O)(=O)OCCCCOS(=O)(=O)c2ccc(C)cc2)cc1
inactive: dose: 100.0 mg/kg/injection, schedule: Q04DX003 (ip), vehicle: other 105 % of control | dose: 200.0 mg/kg/injection, schedule: Q04DX003 (ip), vehicle: other 94 % of control | dose: 400.0 mg/kg/injection, schedule: Q04DX003 (ip), vehicle: other 96 % of control

Nc1nc(N)c2[nH]cnc2n1
inactive: dose: 12.5 mg/kg/injection, schedule: Q01DX005 (ip), vehicle: Klucel (hydroxypropylcellulose) (HPC) 101 % of control | dose: 25.0 mg/kg/injection, schedule: Q01DX005 (ip), vehicle: Klucel (hydroxypropylcellulose) (HPC) 101 % of control | dose: 50.0 mg/kg/injection, schedule: Q01DX005 (ip), vehicle: Klucel (hydroxypropylcellulose) (HPC) 106 % of control | [1] 95 % of control | dose: 100.0 mg/kg/injection, schedule: Q01DX005 (ip), vehicle: Klucel (hydroxypropylcellulose) (HPC) 110 % of control | [2] 95 % of control | [3] 97 % of control | [4] 97 % of control

CC(=O)NN1C(=O)c2ccccc2C1=O
inactive: dose: 100.0 mg/kg/injection, schedule: Q04DX003 (ip), vehicle: Klucel (hydroxypropylcellulose) (HPC) 98 % of control | dose: 200.0 mg/kg/injection, schedule: Q04DX003 (ip), vehicle: Klucel (hydroxypropylcellulose) (HPC) 98 % of control | dose: 400.0 mg/kg/injection, schedule: Q04DX003 (ip), vehicle: Klucel (hydroxypropylcellulose) (HPC) 98 % of control

CO[C@@]12[C@@H]3N[C@@H]3CN1C1=C(C(=O)C(NCCc3ccc(O)cc3)=C(C)C1=O)[C@@H]2COC(N)=O
inactive: dose: 1.5 mg/kg/injection, schedule: Q01DX001 (ip), vehicle: water 102 % of control | dose: 3.0 mg/kg/injection, schedule: Q01DX001 (ip), vehicle: water 104 % of control and 111 % of control | dose: 6.0 mg/kg/injection, schedule: Q01DX001 (ip), vehicle: water 111 % of control | dose: 12.0 mg/kg/injection, schedule: Q01DX001 (ip), vehicle: water 115 % of control
active: dose: 48.0 mg/kg/injection, schedule: Q01DX001 (ip), vehicle: water 151 % of control

COC(=O)c1[nH]cnc1/N=N\N(CCF)CCF
inactive: dose: 2.1 mg/kg/injection, schedule: Q01DX009 (ip), vehicle: carboxymethylcellulose (CMC) 109 % of control | dose: 4.2 mg/kg/injection, schedule: Q01DX009 (ip), vehicle: carboxymethylcellulose (CMC) 108 % of control

Cc1c(NCO)c(=O)n(-c2ccccc2)n1C
inactive: dose: 100.0 mg/kg/injection, schedule: Q01DX009 (ip), vehicle: saline 94 % of control | dose: 200.0 mg/kg/injection, schedule: Q01DX009 (ip), vehicle: saline 89 % of control | dose: 400.0 mg/kg/injection, schedule: Q01DX009 (ip), vehicle: saline 105 % of control

Nc1cc(=S)c2ncn(C3OC(CO)C(O)C3O)c2[nH]1 (stereo not drawn)
inactive: dose: 6.25 mg/kg/injection, schedule: Q01DX005 (ip), vehicle: water 89 % of control | dose: 12.5 mg/kg/injection, schedule: Q01DX005 (ip), vehicle: water 101 % of control | dose: 25.0 mg/kg/injection, schedule: Q01DX005 (ip), vehicle: water 89 % of control | dose: 50.0 mg/kg/injection, schedule: Q01DX005 (ip), vehicle: water 96 % of control | dose: 100.0 mg/kg/injection, schedule: Q01DX001 (ip), vehicle: saline with Tween-80 100 % of control | dose: 100.0 mg/kg/injection, schedule: Q01DX005 (ip), vehicle: water 93 % of control | dose: 200.0 mg/kg/injection, schedule: Q01DX001 (ip), vehicle: saline with Tween-80 91 % of control | dose: 400.0 mg/kg/injection, schedule: Q01DX001 (ip), vehicle: saline with Tween-80 100 % of control

c1ccc(CNc2ccccn2)cc1
inactive: [2] 97 % of control | [3] 97 % of control | [4] 95 % of control

CC(=O)Oc1ccc2c3c(cccc13)CC2
inactive: [2] 98 % of control | [3] 98 % of control | [4] 98 % of control

CC(=O)c1cc(-c2ccc(Cl)cc2)nc2c(Cl)cc(Cl)cc12
inactive: dose: 100.0 mg/kg/injection, schedule: Q01DX001 (ip), vehicle: saline 89 % of control | dose: 200.0 mg/kg/injection, schedule: Q01DX001 (ip), vehicle: saline 87 % of control | dose: 400.0 mg/kg/injection, schedule: Q01DX001 (ip), vehicle: saline 91 % of control

CC(C)(CNC1CCCCC1)OC(=O)c1ccc([N+](=O)[O-])cc1
inactive: dose: 75.0 mg/kg/injection, schedule: Q01DX001 (ip), vehicle: saline 94 % of control | dose: 150.0 mg/kg/injection, schedule: Q01DX001 (ip), vehicle: saline 99 % of control | dose: 300.0 mg/kg/injection, schedule: Q01DX001 (ip), vehicle: saline 94 % of control

ClCCCCC(Cl)(Cl)Cl
inactive: dose: 100.0 mg/kg/injection, schedule: Q01DX001 (ip), vehicle: Klucel (hydroxypropylcellulose) (HPC) 101 % of control | dose: 200.0 mg/kg/injection, schedule: Q01DX001 (ip), vehicle: Klucel (hydroxypropylcellulose) (HPC) 98 % of control | dose: 400.0 mg/kg/injection, schedule: Q01DX001 (ip), vehicle: Klucel (hydroxypropylcellulose) (HPC) 93 % of control

Nc1nc(N)nc(C(=O)CCC(=O)O)n1
inactive: [5] 95 % of control | [6] 95 % of control | dose: 200.0 mg/kg/injection, schedule: Q01DX009 (ip), vehicle: saline with Tween-80 95 % of control

Cc1cc(/C=C/c2ccc3cc(N(C)C)ccc3[n+]2C)c(C)n1-c1ccccc1
inactive: dose: 0.1 mg/kg/injection, schedule: Q01DX009 (ip), vehicle: saline with Tween-80 95 % of control | dose: 0.2 mg/kg/injection, schedule: Q01DX009 (ip), vehicle: saline with Tween-80 95 % of control | dose: 0.39 mg/kg/injection, schedule: Q01DX009 (ip), vehicle: saline with Tween-80 98 % of control | dose: 0.78 mg/kg/injection, schedule: Q01DX009 (ip), vehicle: saline with Tween-80 101 % of control

CCCCOC(=O)C1C2CCC(O2)C1C(N)=O (stereo not drawn)
inactive: dose: 25.0 mg/kg/injection, schedule: Q04DX002 (ip), vehicle: saline with Tween-80 95 % of control | dose: 50.0 mg/kg/injection, schedule: Q04DX002 (ip), vehicle: saline with Tween-80 101 % of control

N#CCc1ccc(Cl)c(Cl)c1
inactive: dose: 25.0 mg/kg/injection, schedule: Q01DX009 (ip), vehicle: saline with Tween-80 102 % of control | dose: 25.0 mg/kg/injection, schedule: Q04DX003 (ip), vehicle: saline with Tween-80 111 % of control | [5] 100 % of control | [1] 94 % of control | [2] 102 % of control

CC(CCC/C=C/CCCN(C)C(=N)N)CC(C)C1OC(=O)C(C)C(O)/C=C/C(C)C(O)C(C)C(O)C(C)C(O)CCCC(O)CC2(O)OC(CC(OC(=O)CC(=O)O)CC(O)CC(O)C(C)C(O)/C=C/C=C/C1C)CC(O)C2O (stereo not drawn)
inactive: dose: 5.5 mg/kg/injection, schedule: Q01DX009 (ip), vehicle: saline 100 % of control

C/C(=N/NC(=O)c1ccccc1)c1cccc(O)c1
inactive: [6] 89 % of control | [2] 94 % of control | [3] 90 % of control | dose: 400.0 mg/kg/injection, schedule: Q01DX009 (ip), vehicle: saline with Tween-80 103 % of control | [4] 97 % of control

CC1=C(O)C(=O)OC1c1ccc(C)cc1 (stereo not drawn)
inactive: dose: 12.5 mg/kg/injection, schedule: Q01DX009 (ip), vehicle: other 101 % of control | dose: 25.0 mg/kg/injection, schedule: Q01DX009 (ip), vehicle: other 98 % of control | dose: 50.0 mg/kg/injection, schedule: Q01DX009 (ip), vehicle: other 95 % of control | dose: 100.0 mg/kg/injection, schedule: Q01DX009 (ip), vehicle: other 98 % of control | dose: 200.0 mg/kg/injection, schedule: Q01DX009 (ip), vehicle: other 104 % of control

O=P(O)(O)c1ccccc1 (tested in a mixture with another compound)
inactive: dose: 100.0 mg/kg/injection, schedule: Q04DX003 (ip), vehicle: saline 100 % of control | dose: 200.0 mg/kg/injection, schedule: Q04DX003 (ip), vehicle: saline 91 % of control | dose: 400.0 mg/kg/injection, schedule: Q04DX003 (ip), vehicle: saline 95 % of control

CC(C)(C)OC(=O)NC(CCCCNC(=O)OCc1ccccc1)C(=O)Oc1ccc([N+](=O)[O-])cc1 (stereo not drawn)
inactive: [2] 91 % of control | [3] 86 % of control | [4] 86 % of control

From PubChem BioAssay AID256 (DTP/NCI, 2004)
